According to patent publication US4729991A, “Cephem compounds” (Fujisawa Pharmaceutical Co., Ltd., priority 1978, dated 1988):
Values after ≈ are worked out from the molar mass of the structure shown.

Key:
Assay in all cases: In vitro antibacterial activity, two-fold agar-plate dilution method
Format in all cases: cell-based
[1] = test system: Pseudomonus aeruginosa NCTC-10490; conditions: HI-agar, 37° C., 20 hours
Procedure: (§1) (1) Test method In vitro antibacterial activity was determined by the two-fold agar-plate dilution method as described below. One loopful of an overnight culture of each test strain in Trypticase-soy broth was streaked on heart infusion agar (HI-agar) containing graded concentrations of the test compound and incubated at 37° C. for 20 hours. The minimal inhibitory concentration (MIC) was expressed in μg/ml.

[2] = test system: Escherichia coli NIHJ JC-2; conditions: NIHJJC2, HI-agar, 37° C., 20 hours
Procedure: as §1

Proteus mirabilis 18 = conditions: HI-agar, 37° C., 20 hours
Procedure: as §1

[3] = test system: Proteus vulgaris IAM-1025; conditions: IAM1025, HI-agar, 37° C., 20 hours
Procedure: as §1

Klebsiella pneumoniae 20 = conditions: HI-agar, 37° C., 20 hours
Procedure: as §1

[4] = test system: Staphylococcus aureus 209P JC-1; conditions: HI-agar, 37° C., 20 hours
Procedure: as §1

Molecule `CO/N=C(\C(=O)NC1C(=O)N2C(C(=O)O)=C(CSc3nncs3)CSC12)c1nc(N)sc1Br` (stereo not drawn) [compound 1, 7-[2-(2-amino-5-bromothiazol-4-yl)-2-methoxyiminoacetamido]-3-(1,3,4-thiadiazol-2-ylthiomethyl)-3-cephem-4-carboxylic acid (syn isomer)] has an MIC [1] of 3.13 µg/mL (≈ 5.28 µM), an MIC [2] of 0.78 µg/mL (≈ 1.32 µM) and an MIC (Proteus mirabilis 18) of 0.78 µg/mL (≈ 1.32 µM). For the same molecule, the MIC [3] was 6.25 µg/mL (≈ 10.5 µM), the MIC (Klebsiella pneumoniae 20) was 0.78 µg/mL (≈ 1.32 µM) and the MIC [4] was 1.56 µg/mL (≈ 2.63 µM).
Work on `CO/N=C(\C(=O)NC1C(=O)N2C(C(=O)O)=C(CSc3nnc(C)s3)CSC12)c1nc(N)sc1Br` (stereo not drawn) [compound 2, 7-[2-(2-amino-5-bromothiazol-4-yl)-2-methoxyiminoacetamide]-3-(5-methyl-1,3,4-thiadiazol-2-ylthiomethyl)-3-cephem-4-carboxylic acid (syn isomer)] yielded an MIC [1] of 6.25 µg/mL (≈ 10.3 µM), an MIC [2] of 1.56 µg/mL (≈ 2.57 µM) and an MIC (Proteus mirabilis 18) of 6.25 µg/mL (≈ 10.3 µM). The MIC [3] was 12.5 µg/mL (≈ 20.6 µM), the MIC (Klebsiella pneumoniae 20) was 3.13 µg/mL (≈ 5.16 µM) and the MIC [4] was 3.13 µg/mL (≈ 5.16 µM).
With `CO/N=C(\C(=O)NC1C(=O)N2C(C(=O)O)=C(CSc3nnnn3C)CSC12)c1nc(N)sc1Br` (stereo not drawn) [compound 3, 7-[2-(2-amino-5-bromothiazol-4-yl)-2-methoxyiminoacetamido]-3-(1-methyl-1H-tetrazol-5-ylthiomethyl)-3-cephem-4-carboxylic acid (syn isomer)] the MIC [1] was 3.13 µg/mL (≈ 5.3 µM), the MIC [2] was 1.56 µg/mL (≈ 2.64 µM) and the MIC (Proteus mirabilis 18) was 3.13 µg/mL (≈ 5.3 µM). The MIC [3] was 12.5 µg/mL (≈ 21.2 µM), the MIC (Klebsiella pneumoniae 20) was 0.39 µg/mL (≈ 0.66 µM) and the MIC [4] was 3.13 µg/mL (≈ 5.3 µM).
`CO/N=C(\C(=O)NC1C(=O)N2C(C(=O)O)=C(COC(=O)c3ccccc3)CSC12)c1nc(N)sc1Br` (stereo not drawn) [compound 4, 7-[2-(2-amino-5-bromothiazol-4-yl)-2-methoxyiminoacetamido]-3-benzoyloxymethyl-3-cephem-4-carboxylic acid (syn isomer)] showed an MIC [1] of 6.25 µg/mL (≈ 10.5 µM), an MIC [2] of 6.25 µg/mL (≈ 10.5 µM) and an MIC (Proteus mirabilis 18) of 3.13 µg/mL (≈ 5.25 µM). For the same molecule, the MIC [3] was 12.5 µg/mL (≈ 21 µM), the MIC (Klebsiella pneumoniae 20) was 1.56 µg/mL (≈ 2.62 µM) and the MIC [4] was 1.56 µg/mL (≈ 2.62 µM).
With `CO/N=C(\C(=O)NC1C(=O)N2C(C(=O)O)=C(CSc3nncs3)CSC12)c1nc(N)sc1Cl` (stereo not drawn) [compound 5, 7-[2-(2-amino-5-chlorothiazol-4-yl)-2-methoxyiminoacetamido]-3-(1,3,4-thiadiazol-2-ylthiomethyl)-3-cephem-4-carboxylic acid (syn isomer)] the MIC [1] was 1.56 µg/mL (≈ 2.85 µM), the MIC [2] was 1.56 µg/mL (≈ 2.85 µM) and the MIC (Proteus mirabilis 18) was 0.78 µg/mL (≈ 1.42 µM). The MIC [3] was 1.56 µg/mL (≈ 2.85 µM), the MIC (Klebsiella pneumoniae 20) was 0.39 µg/mL (≈ 0.712 µM) and the MIC [4] was 3.13 µg/mL (≈ 5.71 µM).
